According to PubChem BioAssay AID1918995 (Molecular Pharmacology Branch, DTP, NCI, 2023):
Blank lines part the entries; values can stand above or below the compound they belong to.

Tested on: 324938-238-R-J1-PDC complex spheroid growth, % test/control
Test: Anticancer human tumor 324938-238-R-J1-PDC patient-derived bladder carcinoma cell line growth inhibition [AhR]
Conditions: for IC50: curve of first compound; for viability, T/C: stronger effect = lower value
Method in brief: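 Spheroids combined tumor cells with HUVEC endothelial cells and human MSCs as stroma. AhR antagonists were paired with standard or investigational drugs, each dosed in half-log steps down from near clinical Cmax, or from 10 microM where Cmax was unknown.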

[1] = second compound 0.1 µM, first compound 0.00316 µM
[2] = second compound 0.1 µM, first compound 0.01 µM
[3] = second compound 0.1 µM, first compound 0.0316 µM
[4] = second compound 0.1 µM, first compound 0.1 µM
[5] = second compound 0.1 µM, first compound 0.316 µM
[6] = second compound 0.1 µM, first compound 1 µM
[7] = second compound 0.316 µM, first compound 0.00316 µM
[8] = second compound 0.316 µM, first compound 0.01 µM
[9] = second compound 0.316 µM, first compound 0.0316 µM
[10] = second compound 0.316 µM, first compound 0.1 µM
[11] = second compound 0.316 µM, first compound 0.316 µM
[12] = second compound 0.316 µM, first compound 1 µM
[13] = second compound 1 µM, first compound 0.00316 µM
[14] = second compound 1 µM, first compound 0.01 µM
[15] = second compound 1 µM, first compound 0.0316 µM
[16] = second compound 1 µM, first compound 0.1 µM
[17] = second compound 1 µM, first compound 0.316 µM
[18] = second compound 1 µM, first compound 1 µM
[19] = second compound 3.16 µM, first compound 0.00316 µM
[20] = second compound 3.16 µM, first compound 0.01 µM
[21] = second compound 3.16 µM, first compound 0.0316 µM
[22] = second compound 3.16 µM, first compound 0.1 µM
[23] = second compound 3.16 µM, first compound 0.316 µM
[24] = second compound 3.16 µM, first compound 1 µM
[25] = second compound 10 µM, first compound 0.00316 µM
[26] = second compound 10 µM, first compound 0.01 µM
[27] = second compound 10 µM, first compound 0.0316 µM
[28] = second compound 10 µM, first compound 0.1 µM
[29] = second compound 10 µM, first compound 0.316 µM
[30] = second compound 10 µM, first compound 1 µM
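Also: spheroids exposed to agents for seven days before viability read.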

Structure (SMILES): Nc1ncn(C2CC(O)C(CO)O2)c(=O)n1 (stereo not given) + CC(CO)NC(=O)c1cc(-c2ccc(Cl)cc2)nn(-c2cnn(C)c2)c1=O
IC50 (second compound 0.1 µM): > 1000 nM | IC50 (second compound 0.316 µM): > 1000 nM | IC50 (second compound 1 µM): > 1000 nM | IC50 (second compound 3.16 µM): > 1000 nM | IC50 (second compound 10 µM): > 1000 nM | viability, T/C [1]: 98.5% | viability, T/C [2]: 97.5% | viability, T/C [3]: 93.4% | viability, T/C [4]: 73.4% | viability, T/C [5]: 81.7% | viability, T/C [6]: 72.3% | viability, T/C [7]: 98.4% | viability, T/C [8]: 102% | viability, T/C [9]: 97.5% | viability, T/C [10]: 82.9% | viability, T/C [11]: 80.2% | viability, T/C [12]: 64.8% | viability, T/C [13]: 85.9% | viability, T/C [14]: 91.3% | viability, T/C [15]: 82.8% | viability, T/C [16]: 72.2% | viability, T/C [17]: 68.3% | viability, T/C [18]: 61.5% | viability, T/C [19]: 72.4% | viability, T/C [20]: 72.5% | viability, T/C [21]: 64.1% | viability, T/C [22]: 60.4% | viability, T/C [23]: 64.4% | viability, T/C [24]: 57.6% | viability, T/C [25]: 61.4% | viability, T/C [26]: 67.9% | viability, T/C [27]: 65.8% | viability, T/C [28]: 55.9% | viability, T/C [29]: 58.3% | viability, T/C [30]: 57.8%

Structure (SMILES): CC1(C)CCC(CN2CCN(c3ccc(C(=O)NS(=O)(=O)c4ccc(NCC5CCOCC5)c([N+](=O)[O-])c4)c(Oc4cnc5[nH]ccc5c4)c3)CC2)=C(c2ccc(Cl)cc2)C1 + CC(CO)NC(=O)c1cc(-c2ccc(Cl)cc2)nn(-c2cnn(C)c2)c1=O
IC50 (second compound 0.1 µM): > 10000 nM | IC50 (second compound 0.316 µM): > 10000 nM | IC50 (second compound 1 µM): > 10000 nM | IC50 (second compound 3.16 µM): > 10000 nM | IC50 (second compound 10 µM): > 10000 nM | viability, T/C [3]: 102% | viability, T/C [4]: 101% | viability, T/C [5]: 91.8% | viability, T/C [6]: 77.1% | viability, T/C (second compound 0.1 µM, first compound 3.16 µM): 72.4% | viability, T/C (second compound 0.1 µM, first compound 10 µM): 61.4% | viability, T/C [9]: 96.2% | viability, T/C [10]: 96.7% | viability, T/C [11]: 89.9% | viability, T/C [12]: 82.2% | viability, T/C (second compound 0.316 µM, first compound 3.16 µM): 70.9% | viability, T/C (second compound 0.316 µM, first compound 10 µM): 61.8% | viability, T/C [15]: 80.6% | viability, T/C [16]: 87.9% | viability, T/C [17]: 92.3% | viability, T/C [18]: 72% | viability, T/C (second compound 1 µM, first compound 3.16 µM): 68.2% | viability, T/C (second compound 1 µM, first compound 10 µM): 62% | viability, T/C [21]: 71.8% | viability, T/C [22]: 77.6% | viability, T/C [23]: 68.3% | viability, T/C [24]: 61.3% | viability, T/C (second compound 3.16 µM, first compound 3.16 µM): 65.5% | viability, T/C (second compound 3.16 µM, first compound 10 µM): 54.4% | viability, T/C [27]: 62.2% | viability, T/C [28]: 63.4% | viability, T/C [29]: 67.6% | viability, T/C [30]: 59.4% | viability, T/C (second compound 10 µM, first compound 3.16 µM): 61.5% | viability, T/C (second compound 10 µM, first compound 10 µM): 50.6%

More lines, main results first:

IC50 (second compound 0.1 µM): 277 nM | IC50 (second compound 0.316 µM): 379 nM | IC50 (second compound 1 µM): 245 nM | IC50 (second compound 3.16 µM): 309 nM | IC50 (second compound 10 µM): 324 nM
Structure (SMILES): CC1COCCN1c1cc(-c2ccnn2C)c2ccnc(-c3ccn[nH]3)c2n1 (stereo not given) + Cc1ccccc1N=Nc1ccc(NC(=O)c2ccnn2C)c(C)c1
viability, T/C [1]: 102% | viability, T/C [2]: 104% | viability, T/C [3]: 102% | viability, T/C [4]: 74.7% | viability, T/C [5]: 48.8% | viability, T/C [6]: 32.7% | viability, T/C [7]: 104% | viability, T/C [8]: 90.8% | viability, T/C [9]: 88.8% | viability, T/C [10]: 71.5% | viability, T/C [11]: 53.6% | viability, T/C [12]: 30.4% | viability, T/C [13]: 95% | viability, T/C [14]: 95.4% | viability, T/C [15]: 87.6% | viability, T/C [16]: 65.8% | viability, T/C [17]: 46.6% | viability, T/C [18]: 31.5% | viability, T/C [19]: 78.8% | viability, T/C [20]: 88.3% | viability, T/C [21]: 73.8% | viability, T/C [22]: 67.5% | viability, T/C [23]: 49.8% | viability, T/C [24]: 31.6% | viability, T/C [25]: 74.3% | viability, T/C [26]: 81.2% | viability, T/C [27]: 71% | viability, T/C [28]: 64.4% | viability, T/C [29]: 50.8% | viability, T/C [30]: 35%

IC50 (second compound 0.1 µM): > 100 nM | IC50 (second compound 0.316 µM): > 100 nM | IC50 (second compound 1 µM): > 100 nM | IC50 (second compound 3.16 µM): > 100 nM | IC50 (second compound 10 µM): > 100 nM
Structure (SMILES): Cn1ncnc1C1c2n[nH]c(=O)c3cc(F)cc(c23)NC1c1ccc(F)cc1 (stereo not given) + Cc1ccccc1N=Nc1ccc(NC(=O)c2ccnn2C)c(C)c1
viability, T/C (second compound 0.1 µM, first compound 0.000316 µM): 103% | viability, T/C (second compound 0.1 µM, first compound 0.001 µM): 114% | viability, T/C [1]: 107% | viability, T/C [2]: 83.6% | viability, T/C [3]: 81.1% | viability, T/C [4]: 63.8% | viability, T/C (second compound 0.316 µM, first compound 0.000316 µM): 98.4% | viability, T/C (second compound 0.316 µM, first compound 0.001 µM): 100% | viability, T/C [7]: 103% | viability, T/C [8]: 74.4% | viability, T/C [9]: 76.1% | viability, T/C [10]: 69% | viability, T/C (second compound 1 µM, first compound 0.000316 µM): 92% | viability, T/C (second compound 1 µM, first compound 0.001 µM): 96.5% | viability, T/C [13]: 95.7% | viability, T/C [14]: 66.5% | viability, T/C [15]: 85% | viability, T/C [16]: 62.4% | viability, T/C (second compound 3.16 µM, first compound 0.000316 µM): 83.9% | viability, T/C (second compound 3.16 µM, first compound 0.001 µM): 83.7% | viability, T/C [19]: 86.9% | viability, T/C [20]: 73.6% | viability, T/C [21]: 78.3% | viability, T/C [22]: 61.1% | viability, T/C (second compound 10 µM, first compound 0.000316 µM): 78.2% | viability, T/C (second compound 10 µM, first compound 0.001 µM): 77.8% | viability, T/C [25]: 77.2% | viability, T/C [26]: 73.5% | viability, T/C [27]: 69.2% | viability, T/C [28]: 66%

IC50 (second compound 0.1 µM): 3.21 nM | IC50 (second compound 0.316 µM): 2.48 nM | IC50 (second compound 1 µM): 1.88 nM | IC50 (second compound 3.16 µM): 1.25 nM | IC50 (second compound 10 µM): 1.44 nM
Structure (SMILES): CCc1c2c(nc3ccc(O)cc13)-c1cc3c(c(=O)n1C2)COC(=O)[C@]3(O)CC + Cc1ccccc1N=Nc1ccc(NC(=O)c2ccnn2C)c(C)c1
viability, T/C (second compound 0.1 µM, first compound 0.000949 µM): 62.4% | viability, T/C (second compound 0.1 µM, first compound 0.003 µM): 52% | viability, T/C (second compound 0.1 µM, first compound 0.00949 µM): 18.5% | viability, T/C (second compound 0.1 µM, first compound 0.03 µM): 15.2% | viability, T/C (second compound 0.1 µM, first compound 0.0949 µM): 16.2% | viability, T/C (second compound 0.1 µM, first compound 0.3 µM): 15.5% | viability, T/C (second compound 0.316 µM, first compound 0.000949 µM): 57.4% | viability, T/C (second compound 0.316 µM, first compound 0.003 µM): 48.5% | viability, T/C (second compound 0.316 µM, first compound 0.00949 µM): 17.1% | viability, T/C (second compound 0.316 µM, first compound 0.03 µM): 16.4% | viability, T/C (second compound 0.316 µM, first compound 0.0949 µM): 14.2% | viability, T/C (second compound 0.316 µM, first compound 0.3 µM): 16.1% | viability, T/C (second compound 1 µM, first compound 0.000949 µM): 52.4% | viability, T/C (second compound 1 µM, first compound 0.003 µM): 48.4% | viability, T/C (second compound 1 µM, first compound 0.00949 µM): 17.9% | viability, T/C (second compound 1 µM, first compound 0.03 µM): 12.9% | viability, T/C (second compound 1 µM, first compound 0.0949 µM): 15.8% | viability, T/C (second compound 1 µM, first compound 0.3 µM): 15.1% | viability, T/C (second compound 3.16 µM, first compound 0.000949 µM): 50.9% | viability, T/C (second compound 3.16 µM, first compound 0.003 µM): 47.9% | viability, T/C (second compound 3.16 µM, first compound 0.00949 µM): 14.9% | viability, T/C (second compound 3.16 µM, first compound 0.03 µM): 12.8% | viability, T/C (second compound 3.16 µM, first compound 0.0949 µM): 13.8% | viability, T/C (second compound 3.16 µM, first compound 0.3 µM): 15.4% | viability, T/C (second compound 10 µM, first compound 0.000949 µM): 52.3% | viability, T/C (second compound 10 µM, first compound 0.003 µM): 46% | viability, T/C (second compound 10 µM, first compound 0.00949 µM): 19.9% | viability, T/C (second compound 10 µM, first compound 0.03 µM): 12.9% | viability, T/C (second compound 10 µM, first compound 0.0949 µM): 14% | viability, T/C (second compound 10 µM, first compound 0.3 µM): 16.2%
